{
  "source": "paper PMC3119665",
  "about": "“A New Drug Design Targeting the Adenosinergic System for Huntington's Disease” (PLoS ONE, 2011)",
  "key": {"Neuropeptide Y Y1": {"molecular_target": "T1, Neuropeptide Y Y1 (Homo sapiens, UniProt P25929)", "T1 construct": "purchased MDS Pharma Services Taiwan", "assay": "Radioligand binding panel (Table S1)", "details": "10 μM T1-11, n 2"}, "R6/2 mice [1]": {"test_system": "R6/2 mice", "assay": "Hemodynamic examination of R6/2 mice", "assay_type": "in vivo", "details": "subcutaneous Alzet minipump for 48 h, 125 µg/mouse/day", "method": "Heart rates and blood pressure of conscious and anesthetized mice were measured using a blood pressure monitor (model MK-2000; Muromachi Kikai, Tokyo, Japan) between 10 AM to 6 PM. Values of 12–18 successful readings per mouse were used to determine the blood pressure.\n(A) T1-11 (125 µg/mouse/day) or vehicle (CON) was administrated subcutaneously to the indicated mice of 7 weeks old using ALZET osmotic minipumps for 6 weeks. Rotarod performance was assessed. (B, C) T1-11 (125 µg/mouse/day) was administrated subcutaneously to the indicated mice of 9 weeks old using ALZET osmotic minipumps for 48 h. Heart rate (B) and blood pressure (C) were determined by a tail-cuff method. * p<0.05. *** p<0.005. (TIF) Click here for additional data file."}, "[2]": {"molecular_target": "T2, Cholecystokinin CCK. (CCKA) (Homo sapiens, UniProt P32238)", "T2 construct": "purchased MDS Pharma Services Taiwan", "T2 sequence (P32238 whole entry)": "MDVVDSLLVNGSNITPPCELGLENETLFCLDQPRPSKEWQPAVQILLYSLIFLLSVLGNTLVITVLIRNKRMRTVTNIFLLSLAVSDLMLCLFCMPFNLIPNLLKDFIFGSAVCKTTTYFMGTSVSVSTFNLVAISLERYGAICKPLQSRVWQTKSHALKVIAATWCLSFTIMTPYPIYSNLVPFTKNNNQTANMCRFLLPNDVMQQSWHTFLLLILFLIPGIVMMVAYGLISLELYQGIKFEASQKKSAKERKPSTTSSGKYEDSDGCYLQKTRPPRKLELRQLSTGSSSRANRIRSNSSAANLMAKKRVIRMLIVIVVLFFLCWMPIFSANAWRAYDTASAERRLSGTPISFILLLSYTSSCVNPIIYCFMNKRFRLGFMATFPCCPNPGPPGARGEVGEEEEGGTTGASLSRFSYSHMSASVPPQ", "assay": "Radioligand binding panel (Table S1)", "details": "10 μM T1-11, n 2"}, "Chemokine CX3CR1": {"molecular_target": "T3, Chemokine CX3CR1 (Homo sapiens, UniProt P49238)", "T3 construct": "purchased MDS Pharma Services Taiwan", "T3 sequence (P49238 whole entry)": "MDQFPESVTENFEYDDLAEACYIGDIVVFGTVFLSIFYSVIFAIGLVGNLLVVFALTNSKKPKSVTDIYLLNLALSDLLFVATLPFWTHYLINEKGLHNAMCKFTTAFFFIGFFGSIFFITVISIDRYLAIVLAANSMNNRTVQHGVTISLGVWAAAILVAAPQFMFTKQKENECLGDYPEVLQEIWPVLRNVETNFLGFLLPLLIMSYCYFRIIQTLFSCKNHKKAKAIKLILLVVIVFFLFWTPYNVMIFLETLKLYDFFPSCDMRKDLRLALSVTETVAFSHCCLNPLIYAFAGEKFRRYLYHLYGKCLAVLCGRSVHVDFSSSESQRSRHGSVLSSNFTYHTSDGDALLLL", "assay": "Radioligand binding panel (Table S1)", "details": "10 μM T1-11, n 2"}, "Adrenergic α 1A": {"molecular_target": "T4, Adrenergic α 1A (Rattus norvegicus, UniProt P43140)", "T4 construct": "purchased MDS Pharma Services Taiwan", "T4 sequence (P43140 whole entry)": "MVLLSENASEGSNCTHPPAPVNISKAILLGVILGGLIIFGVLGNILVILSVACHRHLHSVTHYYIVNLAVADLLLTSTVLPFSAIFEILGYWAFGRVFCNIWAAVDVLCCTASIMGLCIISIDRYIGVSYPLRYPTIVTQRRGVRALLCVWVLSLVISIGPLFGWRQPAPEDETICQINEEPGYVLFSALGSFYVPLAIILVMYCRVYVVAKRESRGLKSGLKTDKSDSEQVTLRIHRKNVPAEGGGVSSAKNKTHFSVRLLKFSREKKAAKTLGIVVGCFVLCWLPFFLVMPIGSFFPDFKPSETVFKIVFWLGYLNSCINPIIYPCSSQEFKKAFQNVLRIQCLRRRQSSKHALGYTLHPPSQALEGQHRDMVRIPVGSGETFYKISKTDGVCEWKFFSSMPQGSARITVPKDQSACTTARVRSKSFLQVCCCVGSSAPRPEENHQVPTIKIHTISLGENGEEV", "assay": "Radioligand binding panel (Table S1)", "details": "10 μM T1-11, n 2"}, "Muscarinic M4": {"molecular_target": "T5, Muscarinic M4 (Homo sapiens, UniProt P08173)", "T5 construct": "purchased MDS Pharma Services Taiwan", "T5 sequence (P08173 whole entry)": "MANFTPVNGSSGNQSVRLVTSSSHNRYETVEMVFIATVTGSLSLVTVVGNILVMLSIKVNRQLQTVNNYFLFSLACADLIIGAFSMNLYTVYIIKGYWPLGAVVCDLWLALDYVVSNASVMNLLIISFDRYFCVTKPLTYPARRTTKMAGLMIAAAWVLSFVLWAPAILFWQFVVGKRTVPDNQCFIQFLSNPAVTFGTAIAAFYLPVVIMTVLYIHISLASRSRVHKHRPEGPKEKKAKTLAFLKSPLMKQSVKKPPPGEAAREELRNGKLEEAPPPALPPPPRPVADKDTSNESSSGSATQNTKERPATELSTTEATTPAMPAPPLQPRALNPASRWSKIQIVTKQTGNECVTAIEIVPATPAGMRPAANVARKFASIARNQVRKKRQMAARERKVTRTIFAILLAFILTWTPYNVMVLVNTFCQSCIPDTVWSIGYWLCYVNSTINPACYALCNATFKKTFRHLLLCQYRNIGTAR", "assay": "Radioligand binding panel (Table S1)", "details": "10 μM T1-11, n 2"}, "Purinergic P 2X": {"test_system": "Purinergic P 2X", "assay": "Radioligand binding panel (Table S1)", "design": "species or system rabbit", "details": "10 μM T1-11, n 2"}, "[3]": {"test_system": "Glycine, Strychnine-Sensitive", "assay": "Radioligand binding panel (Table S1)", "design": "species or system rat", "details": "10 μM T1-11, n 2"}, "[4]": {"molecular_target": "T6, Serotonin (5-Hydroxytryptamine) 5-HT1B (Rattus norvegicus, UniProt P28564)", "T6 construct": "purchased MDS Pharma Services Taiwan", "assay": "Radioligand binding panel (Table S1)", "details": "10 μM T1-11, n 2"}, "R6/2 mice [5]": {"test_system": "R6/2 mice", "assay": "In vivo 3D MRI imaging of brain atrophy in R6/2 mice", "details": "0.05 mg/ml in drinking water, five weeks", "method": "Supplementary file pone.0020934.s005.tif: Figure S5 Effect of T1-11 on the shorten lifespan and enlarged ventricle of R6/2 mice. Animals were given the vehicle (1% DMSO; CON) or T1-11 (0.05 mg/ml)-containing drinking water from the age of 7 weeks. (A) Survival was assessed. Specific comparison to R6/2 mice treated with the vehicle (p = 0.306; Mantel-Cox test). (B) Five weeks after T1-11 treatment, 3D-lMRI was performed to determine the ventricle-to-brain ratio of the indicated animals as described. * p<0.05. (TIF) Click here for additional data file."}, "Prostanoid DP": {"molecular_target": "T7, Prostanoid DP (Homo sapiens, UniProt Q13258)", "T7 construct": "purchased MDS Pharma Services Taiwan", "T7 sequence (Q13258 whole entry)": "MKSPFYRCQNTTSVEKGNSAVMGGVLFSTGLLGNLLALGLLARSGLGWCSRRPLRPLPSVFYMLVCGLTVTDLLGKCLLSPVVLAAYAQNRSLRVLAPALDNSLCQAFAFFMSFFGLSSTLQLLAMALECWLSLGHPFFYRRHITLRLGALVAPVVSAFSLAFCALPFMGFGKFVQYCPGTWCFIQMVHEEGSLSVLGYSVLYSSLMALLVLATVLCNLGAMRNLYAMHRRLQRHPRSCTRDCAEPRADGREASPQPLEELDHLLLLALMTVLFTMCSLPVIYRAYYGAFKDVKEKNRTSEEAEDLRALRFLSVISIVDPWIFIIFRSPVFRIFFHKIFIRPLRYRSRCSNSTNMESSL", "assay": "Radioligand binding panel (Table S1)", "details": "10 μM T1-11, n 2"}, "[6]": {"test_system": "Serotonin (5-Hydroxytryptamine) 5-HT2, Non-Selective", "assay": "Radioligand binding panel (Table S1)", "design": "species or system rat", "details": "10 μM T1-11, n 2"}, "Somatostatin sst5": {"molecular_target": "T8, Somatostatin sst5 (Homo sapiens, UniProt P35346)", "T8 construct": "purchased MDS Pharma Services Taiwan", "T8 sequence (P35346 whole entry)": "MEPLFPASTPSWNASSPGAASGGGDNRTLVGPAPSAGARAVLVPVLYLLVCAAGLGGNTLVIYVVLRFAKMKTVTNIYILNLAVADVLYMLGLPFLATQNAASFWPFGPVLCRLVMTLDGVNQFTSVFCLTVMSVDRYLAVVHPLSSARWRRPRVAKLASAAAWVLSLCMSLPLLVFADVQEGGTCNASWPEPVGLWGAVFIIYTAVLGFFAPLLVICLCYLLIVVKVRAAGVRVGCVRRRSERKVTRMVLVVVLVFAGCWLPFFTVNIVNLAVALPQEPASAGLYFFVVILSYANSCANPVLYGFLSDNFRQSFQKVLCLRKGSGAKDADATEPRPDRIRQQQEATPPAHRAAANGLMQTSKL", "assay": "Radioligand binding panel (Table S1)", "details": "10 μM T1-11, n 2"}, "Neuromedin U NMU1": {"molecular_target": "T9, Neuromedin U NMU1 (Homo sapiens, UniProt Q9HB89)", "T9 construct": "purchased MDS Pharma Services Taiwan", "assay": "Radioligand binding panel (Table S1)", "details": "10 μM T1-11, n 2"}, "Erythropoietin EPOR": {"molecular_target": "T10, Erythropoietin EPOR (Homo sapiens, UniProt P19235)", "T10 construct": "purchased MDS Pharma Services Taiwan", "assay": "Radioligand binding panel (Table S1)", "details": "10 μM T1-11, n 2"}, "Cyclooxygenase COX-2": {"molecular_target": "T11, Cyclooxygenase COX-2 (Homo sapiens, UniProt P35354)", "T11 construct": "purchased MDS Pharma Services Taiwan", "T11 sequence (P35354 18-604)": "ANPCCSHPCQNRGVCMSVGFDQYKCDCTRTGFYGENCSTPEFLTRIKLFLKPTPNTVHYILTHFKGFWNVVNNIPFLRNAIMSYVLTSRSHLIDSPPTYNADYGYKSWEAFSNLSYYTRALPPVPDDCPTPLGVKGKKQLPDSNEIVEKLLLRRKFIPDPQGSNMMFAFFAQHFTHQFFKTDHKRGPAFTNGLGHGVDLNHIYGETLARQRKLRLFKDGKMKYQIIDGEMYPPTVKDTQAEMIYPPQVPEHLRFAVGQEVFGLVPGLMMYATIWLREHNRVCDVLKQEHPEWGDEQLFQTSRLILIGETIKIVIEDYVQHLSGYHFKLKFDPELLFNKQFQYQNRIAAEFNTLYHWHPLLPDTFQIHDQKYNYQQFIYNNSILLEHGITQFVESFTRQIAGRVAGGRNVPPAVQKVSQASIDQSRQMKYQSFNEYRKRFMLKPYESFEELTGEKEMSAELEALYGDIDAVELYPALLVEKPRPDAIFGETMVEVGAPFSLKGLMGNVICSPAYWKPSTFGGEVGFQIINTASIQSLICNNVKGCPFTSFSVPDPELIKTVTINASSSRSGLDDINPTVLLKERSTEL", "assay": "Radioligand binding panel (Table S1)", "details": "10 μM T1-11, n 2"}, "[7]": {"molecular_target": "T12, Nicotinic Acetylcholine α7, Bungarotoxin (Rattus norvegicus, UniProt Q05941)", "T12 construct": "purchased MDS Pharma Services Taiwan", "assay": "Radioligand binding panel (Table S1)"}, "Imidazoline I2, Central": {"test_system": "Imidazoline I2, Central", "assay": "Radioligand binding panel (Table S1)", "design": "species or system rat", "details": "10 μM T1-11, n 2"}, "Aldosterone": {"molecular_target": "T13, Aldosterone (Rattus norvegicus, UniProt P22199)", "T13 construct": "purchased MDS Pharma Services Taiwan", "T13 sequence (P22199 whole entry)": "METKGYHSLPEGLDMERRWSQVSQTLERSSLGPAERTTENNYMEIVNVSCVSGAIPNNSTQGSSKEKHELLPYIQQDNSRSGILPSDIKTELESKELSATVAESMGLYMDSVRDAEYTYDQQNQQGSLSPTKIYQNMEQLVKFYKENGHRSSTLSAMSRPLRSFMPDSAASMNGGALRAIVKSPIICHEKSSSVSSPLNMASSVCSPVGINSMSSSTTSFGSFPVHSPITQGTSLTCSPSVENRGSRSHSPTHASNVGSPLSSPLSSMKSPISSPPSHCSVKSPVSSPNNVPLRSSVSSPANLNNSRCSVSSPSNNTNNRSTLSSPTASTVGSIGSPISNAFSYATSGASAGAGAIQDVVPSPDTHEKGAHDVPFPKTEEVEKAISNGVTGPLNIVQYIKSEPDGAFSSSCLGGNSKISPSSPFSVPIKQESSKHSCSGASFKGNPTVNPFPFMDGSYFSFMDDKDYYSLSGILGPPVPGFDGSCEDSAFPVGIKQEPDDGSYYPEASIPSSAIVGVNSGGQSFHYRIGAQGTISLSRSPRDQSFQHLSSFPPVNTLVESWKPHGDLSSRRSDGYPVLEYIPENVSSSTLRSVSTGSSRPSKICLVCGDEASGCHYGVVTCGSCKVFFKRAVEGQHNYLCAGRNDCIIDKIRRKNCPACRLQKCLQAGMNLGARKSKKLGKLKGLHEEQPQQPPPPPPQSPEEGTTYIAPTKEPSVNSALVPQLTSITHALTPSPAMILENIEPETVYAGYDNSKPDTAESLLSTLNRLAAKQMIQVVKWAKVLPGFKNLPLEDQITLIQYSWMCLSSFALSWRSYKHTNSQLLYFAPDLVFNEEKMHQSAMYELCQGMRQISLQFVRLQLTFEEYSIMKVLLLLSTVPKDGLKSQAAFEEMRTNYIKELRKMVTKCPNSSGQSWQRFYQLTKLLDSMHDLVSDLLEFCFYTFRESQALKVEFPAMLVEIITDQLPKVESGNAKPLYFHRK", "assay": "Radioligand binding panel (Table S1)", "details": "10 μM T1-11, n 2"}, "[8]": {"molecular_target": "T14, G Protein-Coupled Receptor, GPR103 (Homo sapiens, UniProt Q96P65)", "T14 construct": "purchased MDS Pharma Services Taiwan", "assay": "Radioligand binding panel (Table S1)", "details": "10 μM T1-11, n 2"}, "Prostanoid EP4": {"molecular_target": "T15, Prostanoid EP4 (Homo sapiens, UniProt P35408)", "T15 construct": "purchased MDS Pharma Services Taiwan", "assay": "Radioligand binding panel (Table S1)", "details": "10 μM T1-11, n 2"}, "[9]": {"assay": "T1-11 level in the brain after intraperitoneal injection", "assay_type": "in vivo, mice", "details": "mouse, ip, 5 mg/kg, 30 min after the intraperitoneal injection, n = 4, mean ± s.e.m., read-out: T1-11 detected in the brain"}, "Neurotensin NT 1": {"molecular_target": "T16, Neurotensin NT 1 (Homo sapiens, UniProt P30989)", "T16 construct": "purchased MDS Pharma Services Taiwan", "assay": "Radioligand binding panel (Table S1)", "details": "10 μM T1-11, n 2"}, "Bradykinin B2": {"molecular_target": "T17, Bradykinin B2 (Homo sapiens, UniProt P30411)", "T17 construct": "purchased MDS Pharma Services Taiwan", "assay": "Radioligand binding panel (Table S1)", "details": "10 μM T1-11, n 2"}, "Motilin": {"molecular_target": "T18, Motilin (Homo sapiens, UniProt O43193)", "T18 construct": "purchased MDS Pharma Services Taiwan", "T18 sequence (O43193 whole entry)": "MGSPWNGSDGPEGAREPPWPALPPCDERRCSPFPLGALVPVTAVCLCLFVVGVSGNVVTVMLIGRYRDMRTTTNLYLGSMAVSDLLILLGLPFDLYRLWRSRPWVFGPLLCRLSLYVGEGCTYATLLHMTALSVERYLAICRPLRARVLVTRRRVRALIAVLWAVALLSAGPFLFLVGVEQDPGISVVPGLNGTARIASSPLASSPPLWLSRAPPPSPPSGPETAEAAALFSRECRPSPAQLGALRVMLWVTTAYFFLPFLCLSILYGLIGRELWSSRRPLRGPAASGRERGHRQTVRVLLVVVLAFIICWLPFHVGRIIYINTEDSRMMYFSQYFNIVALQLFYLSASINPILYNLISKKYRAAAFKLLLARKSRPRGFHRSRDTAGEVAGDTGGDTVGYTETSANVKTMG", "assay": "Radioligand binding panel (Table S1)", "details": "10 μM T1-11, n 2"}, "[10]": {"molecular_target": "T19, Adenosine transporter (ENT1) (Cavia porcellus, UniProt H0V4R7)", "T19 construct": "Membrane fractions collected from the cerebral cortex of Duncan Hartley derived guinea pigs; tissue MDS Pharma Services Taiwan; host or cells: guinea pig cerebral cortex", "T19 sequence (H0V4R7 1-461)": "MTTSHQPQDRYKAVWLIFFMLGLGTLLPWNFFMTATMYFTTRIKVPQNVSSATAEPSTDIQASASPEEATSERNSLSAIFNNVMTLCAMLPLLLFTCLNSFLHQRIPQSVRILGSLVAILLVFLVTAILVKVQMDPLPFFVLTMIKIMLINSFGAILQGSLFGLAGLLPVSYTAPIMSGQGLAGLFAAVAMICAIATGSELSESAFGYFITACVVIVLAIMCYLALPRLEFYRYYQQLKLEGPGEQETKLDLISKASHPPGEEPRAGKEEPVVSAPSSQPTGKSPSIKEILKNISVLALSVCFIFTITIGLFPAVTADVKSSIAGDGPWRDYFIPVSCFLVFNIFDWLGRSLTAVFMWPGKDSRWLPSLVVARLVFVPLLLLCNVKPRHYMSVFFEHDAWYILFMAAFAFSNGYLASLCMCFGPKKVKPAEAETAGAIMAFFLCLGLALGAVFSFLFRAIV", "assay": "Radioligand binding assay", "design": "species or system guinea pig"}, "Opiate κ (OP2, KOP)": {"molecular_target": "T20, Opiate κ (OP2, KOP) (Homo sapiens, UniProt P41145)", "T20 construct": "purchased MDS Pharma Services Taiwan", "T20 sequence (P41145 whole entry)": "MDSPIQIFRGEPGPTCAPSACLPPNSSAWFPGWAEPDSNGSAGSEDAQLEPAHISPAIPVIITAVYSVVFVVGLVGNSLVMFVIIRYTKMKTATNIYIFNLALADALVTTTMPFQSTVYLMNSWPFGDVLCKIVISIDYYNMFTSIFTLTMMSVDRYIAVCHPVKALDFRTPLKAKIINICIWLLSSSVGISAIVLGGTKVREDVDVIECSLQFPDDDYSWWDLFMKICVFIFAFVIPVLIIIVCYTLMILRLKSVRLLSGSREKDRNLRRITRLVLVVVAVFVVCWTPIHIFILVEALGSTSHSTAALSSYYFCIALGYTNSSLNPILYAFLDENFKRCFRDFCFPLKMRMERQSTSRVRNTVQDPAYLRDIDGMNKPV", "assay": "Radioligand binding panel (Table S1)", "details": "10 μM T1-11, n 2"}, "Muscarinic M3": {"molecular_target": "T21, Muscarinic M3 (Homo sapiens, UniProt P20309)", "T21 construct": "purchased MDS Pharma Services Taiwan", "assay": "Radioligand binding panel (Table S1)", "details": "10 μM T1-11, n 2"}, "[11]": {"details": "guinea pig cerebral cortex membranes, 3H-NBTI 0.5 nM"}},
  "data": [
    {"smiles": "OC[C@H]1O[C@@H](n2cnc3c(NCc4ccc(O)cc4)ncnc32)[C@H](O)[C@@H]1O", "note": "[T1-11, N ^6-(4-hydroxybenzyl)adenine riboside]", "values": [
      {"measurement": "inhibition at 10 µM", "setting": "Neuropeptide Y Y1", "value": 6, "unit": "%"},
      {"measurement": "Blood pressure", "setting": "R6/2 mice [1]", "value": "did not change the blood pressure of R6/2 mice"},
      {"measurement": "Heart rate", "setting": "R6/2 mice [1]", "value": "did not affect their heart rate and blood pressure"},
      {"measurement": "inhibition at 10 µM", "setting": "[2]", "value": -3, "unit": "%"},
      {"measurement": "inhibition at 10 µM", "setting": "Chemokine CX3CR1", "value": -1, "unit": "%"},
      {"measurement": "inhibition at 10 µM", "setting": "Adrenergic α 1A", "value": -14, "unit": "%"},
      {"measurement": "inhibition at 10 µM", "setting": "Muscarinic M4", "value": 9, "unit": "%"},
      {"measurement": "% Inhibition", "setting": "Purinergic P 2X", "value": 11, "unit": "%"},
      {"measurement": "% Inhibition", "setting": "[3]", "value": 10, "unit": "%"},
      {"measurement": "inhibition at 10 µM", "setting": "[4]", "value": 3, "unit": "%"},
      {"measurement": "Brain atrophy (3D MRI)", "setting": "R6/2 mice [5]", "value": "slightly ameliorated the brain atrophy of R6/2 mice but the improvement did not reach statistic significance"},
      {"measurement": "inhibition at 10 µM", "setting": "Prostanoid DP", "value": 17, "unit": "%"},
      {"measurement": "% Inhibition", "setting": "[6]", "value": 15, "unit": "%"},
      {"measurement": "inhibition at 10 µM", "setting": "Somatostatin sst5", "value": 4, "unit": "%"},
      {"measurement": "inhibition at 10 µM", "setting": "Neuromedin U NMU1", "value": -1, "unit": "%"},
      {"measurement": "inhibition at 10 µM", "setting": "Erythropoietin EPOR", "value": 3, "unit": "%"},
      {"measurement": "inhibition at 10 µM", "setting": "Cyclooxygenase COX-2", "value": 0, "unit": "%"},
      {"measurement": "inhibition at 10 µM", "setting": "[7]", "value": -1, "unit": "%"},
      {"measurement": "% Inhibition", "setting": "Imidazoline I2, Central", "value": 3, "unit": "%"},
      {"measurement": "inhibition at 10 µM", "setting": "Aldosterone", "value": 2, "unit": "%"},
      {"measurement": "inhibition at 10 µM", "setting": "[8]", "value": 2, "unit": "%"},
      {"measurement": "inhibition at 10 µM", "setting": "Prostanoid EP4", "value": -6, "unit": "%"},
      {"measurement": "concentration at 30 min", "setting": "[9]", "value": "0.12 ± 0.01", "unit": "ng/g"},
      {"measurement": "inhibition at 10 µM", "setting": "Neurotensin NT 1", "value": 11, "unit": "%"},
      {"measurement": "inhibition at 10 µM", "setting": "Bradykinin B2", "value": -9, "unit": "%"},
      {"measurement": "inhibition at 10 µM", "setting": "Motilin", "value": -2, "unit": "%"},
      {"measurement": "inhibition at 10 µM", "setting": "[10]; 10 μM T1-11, n 2", "value": 84, "unit": "%"},
      {"measurement": "IC50", "setting": "[10]; [11]", "value": 1570, "unit": "nM"},
      {"measurement": "Ki", "setting": "[10]; [11]", "value": 540, "unit": "nM"},
      {"measurement": "inhibition at 10 µM", "setting": "Opiate κ (OP2, KOP)", "value": 6, "unit": "%"},
      {"measurement": "inhibition at 10 µM", "setting": "Muscarinic M3", "value": -6, "unit": "%"}
    ]}
  ]
}
